Experimental data reported in ChEMBL document CHEMBL4007496, “Isolation and characterization of diterpene glycosides from Siegesbeckia pubescens” (Bioorg Med Chem Lett, 2017).

Columns and labels:
[1] = test system: RAW264.7; assay: Antiinflammatory activity in mouse RAW264.7 cells assessed as inhibition of LPS-induced nitric oxide production preincubated for 30 mins followed by LPS challenge measured after 24 hrs by Griess assay; assay type: functional, cell-based
[2] = test system: MDA-MB-231; assay: Inhibition of EGF-induced invasion of human MDA-MB-231 cells by MTT assay; assay type: functional, cell-based

Row | Compound | IC50 [1] | IC50 [2]
1 | CC1(C)[C@@H](O[C@@H]2O[C@H](CO)[C@@H](O)[C@H](O)[C@H]2O)CC[C@@]2(C)[C@@H]3CC[C@](C)([C@@H](O)CO)C=C3CC[C@H]12 | > 100 µM | 24.8 µM
2 | CC1(C)[C@H]2CCC3=C(CC[C@](C)([C@@H](O)CO)C3)[C@]2(C)CC[C@H]1O[C@@H]1O[C@H](CO)[C@@H](O)[C@H](O)[C@H]1O | > 100 µM | > 25 µM
3 | CC1(C)[C@H]2CCC3=C[C@@](C)(C=O)CC[C@H]3[C@]2(C)CC[C@H]1O[C@@H]1O[C@H](CO)[C@@H](O)[C@H](O)[C@H]1O | > 100 µM | > 25 µM
4 | CC1(C)[C@H]2CCC3=C[C@@](C)([C@H](O)CO)CC[C@H]3[C@]2(C)CC[C@H]1O[C@@H]1O[C@H](CO)[C@@H](O)[C@H](O)[C@H]1O | > 100 µM | 0.27 µM
5 | C=C1C[C@]23CC[C@@H]4[C@](C)(CO[C@@H]5O[C@H](CO)[C@@H](O)[C@H](O)[C@H]5O)CC(=O)C[C@@]4(C)[C@@H]2CC[C@@]1(O)C3 | > 100 µM | 26.8 µM
6 | CC1(C)[C@H]2CCC3=C[C@@](C)([C@@H](O)CO)CC[C@H]3[C@]2(C)CC[C@H]1O[C@@H]1O[C@H](CO)[C@@H](O)[C@H](O)[C@H]1O | > 100 µM | > 25 µM
7 | CC1(C)[C@H](O)CC[C@@]2(C)[C@@H]3CC[C@](C)([C@@H](O)CO)C=C3CC[C@H]12 [DARUTIGENOL] |  | > 25 µM
